Measurements: US11090304B2 (Amgen Inc., priority 2018, dated 2021)
Where two headings read alike, the source gives them in different places.

What was measured:
[1] = test system: Phosphorylation of ERK1/2 in MIA PaCa-2 cells; test: Phospho-ERK1/2 MSD assay in MIA PaCa-2 cells; type: cell-based; details: Homo sapiens
How it was run: (§1)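 Following a 2 or 4 h incubation with titrated compound, cells receive a 10 min pulse of 10 ng/mL EGF. Phospho-ERK1/2 in RIPA lysates is then quantified by MSD immunoassay, and IC50 values come from a four-parameter logistic model.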

[2] = biological target: GDP-bound KRAS protein (aa 1-169), containing both G12C and C118A amino acid substitutions (Homo sapiens, UniProt P01116, C118A/G12C); test: Coupled nucleotide exchange assay (SOS-mediated, AlphaScreen); type: biochemical; details: for Coupled exchange IC50 (2 h): 2 h compound pre-incubation
[3] = test system: Phosphorylation of ERK1/2 in A549 cells; test: Phospho-ERK1/2 MSD assay in A549 cells; type: cell-based; details: Homo sapiens
How it was run: as §1

[4] = MIA PaCa-2, 2 h, read-out: p-ERK IC50 (2 h; MIA PaCa-2), 2 h compound treatment
[5] = A549, 2 h, read-out: p-ERK IC50 (2 h; A549), 2 h compound treatment
[6] = MIA PaCa-2, 4 h, read-out: p-ERK IC50 (4 h; MIA PaCa-2), 4 h compound treatment
[7] = A549, 4 h, read-out: p-ERK IC50 (4 h; A549), 4 h compound treatment

Sequence of GDP-bound KRAS protein (aa 1-169), containing both G12C and C118A amino acid substitutions (P01116 1-169 isoform P01116-2 G12C/C118A): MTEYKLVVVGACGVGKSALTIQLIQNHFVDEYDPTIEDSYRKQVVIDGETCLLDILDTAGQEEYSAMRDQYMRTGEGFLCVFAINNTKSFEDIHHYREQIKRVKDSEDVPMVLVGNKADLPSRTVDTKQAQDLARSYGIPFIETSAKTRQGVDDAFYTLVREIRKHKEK

SMILES	IC50 [1, 4] [nM]	IC50 ([2]; read-out: Coupled exchange IC50 (5 min), 5 min compound pre-incubation) [nM]	IC50 [3, 5] [nM]	Coupled exchange IC50 (5 min) ([2]; 5 min compound pre-incubation)	IC50 [1, 6] [nM]	Coupled exchange IC50 (2 h) [2] [nM]	IC50 [3, 7] [nM]
C=CC(=O)N1CCN(c2nc(=O)n(-c3c(C)cccc3C)c3nc(-c4c(O)cccc4F)c(Cl)cc23)[C@@H](C)C1 [Example 54-69, 6-chloro-1-(2,6-dimethylphenyl)-7-(2-fluoro-6-hydroxyphenyl)-4-((2S)-2-methyl-4-(2-propenoyl)-1-piperazinyl) pyrido[2,3-d]pyrimidin-2(1H)-one]	199	306	≥ 10000				
C=CC(=O)N1CCN(c2nc(=O)n(-c3ccccc3C(C)C)c3nc(-c4cc(O)ccc4Br)c(Cl)cc23)[C@@H](C)C1 [Example 54-87, 7-(2-bromo-5-hydroxyphenyl)-6-chloro-4-((2S)-2-methyl-4-(2-propenoyl)-1-piperazinyl)-1-(2-(2-propanyl)phenyl)pyrido [2,3-d]pyrimidin-2(1H)-one]	66		≥ 10000	0.109 | nda μM			
C=CC(=O)N1CCN(c2nc(=O)n(-c3ccccc3C(C)C)c3nc(-c4cc(O)ccc4F)c(Cl)cc23)[C@@H](C)C1 [Example 54-88, 6-chloro-7-(2-fluoro-5-hydroxyphenyl)-4-((2S)-2-methyl-4-(2-propenoyl)-1-piperazinyl)-1-(2-(2-propanyl)phenyl)pyrido [2,3-d]pyrimidin-2(1H)-one]	101		≥ 10000	0.139 | nda μM			
C=CC(=O)N1CCN(c2nc(=O)n(-c3c(CC)cccc3CC)c3nc(-c4ccccc4F)c(Cl)cc23)[C@@H](C(=O)OC)C1 [Example 55-30, methyl (2R)-1-(6-chloro-1-(2,6-diethylphenyl)-7-(2-fluorophenyl)-2-oxo-1,2-dihydropyrido[2,3-d]pyrimidin-4-yl)-4-(2-propenoyl)-2-piperazinecarboxylate]	1610		≥ 10000	1.95 | nda μM			
C=CC(=O)N1CCN(c2nc(=O)n(-c3ccccc3C(C)C)c3nc(-c4ccccc4F)c(F)cc23)[C@@H](C)C1 [Example 57-7, 6-fluoro-7-(2-fluorophenyl)-4-((2S)-2-methyl-4-(2-propenoyl)-1-piperazinyl)-1-(2-(2-propanyl)phenyl)pyrido[2,3-d]pyrimidin-2(1H)-one]	450		≥ 10000	0.991 | nda μM			
C=CC(=O)N1CCN(c2nc(=O)n(CC3(C(F)(F)F)CC3)c3nc(-c4c(O)cccc4F)c(Cl)cc23)CC1 [Example 60-3, 6-chloro-7-(2-fluoro-6-hydroxyphenyl)-4-(4-(2-propenoyl)-1-piperazinyl)-1-((1-(trifluoromethyl)cyclopropyl)methyl)pyrido[2,3-d]pyrimidin-2(1H)-one]	657		≥ 100000	1.02 µM	552	101	65000
C=CC(=O)N1CCN(c2nc(=O)n(CC(C)(C)C)c3nc(-c4c(O)cccc4F)c(Cl)cc23)CC1 [Example 60-5, 6-chloro-1-(2,2-dimethylpropyl)-7-(2-fluoro-6-hydroxyphenyl)-4-(4-(2-propenoyl)-1-piperazinyl)pyrido[2,3-d]pyrimidin-2(1H)-one]	492		52400	0.589 µM	447	102	60500
C=CC(=O)N1CCN(c2nc(=O)n(CC(C)(C)C)c3nc(-c4ccccc4F)c(Cl)cc23)CC1 [Example 60-6]				1.85 µM	1040	161	67700
C=CC(=O)N1CCN(c2nc(=O)n(-c3nccnc3C3CC3)c3nc(-c4c(O)cccc4F)c(Cl)cc23)[C@@H](C)C1 [Example 60-8, 6-chloro-1-(3-cyclopropyl-2-pyrazinyl)-7-(2-fluoro-6-hydroxyphenyl)-4-((2S)-2-methyl-4-(2-propenoyl)-1-piperazinyl)pyrido[2,3-d]pyrimidin-2(1H)-one]	72		≥ 10000	0.173 | nda μM			
C=CC(=O)N1CCN(c2nc(=O)n(-c3c(C4CC4)ncnc3C3CC3)c3nc(-c4ccccc4F)c(Cl)cc23)[C@@H](C)C1 [Example 60-11, 6-chloro-1-(4,6-dicyclopropyl-5-pyrimidinyl)-7-(2-fluorophenyl)-4-((2S)-2-methyl-4-(2-propenoyl)-1-piperazinyl)pyrido[2,3-d]pyrimidin-2(1H)-one]	63		≥ 10000	0.08 | nda μM			
C=CC(=O)N1CCN(c2nc(=O)n(-c3ccccc3C)c3nc(-c4ccccc4F)c(Cl)cc23)[C@@H](C)C1 [Example 60-14, 6-chloro-7-(2-fluorophenyl)-1-(2-methylphenyl)-4-((2S)-2-methyl-4-(2-propenoyl)-1-piperazinyl)pyrido[2,3-d]pyrimidin-2(1H)-one]	946		≥ 10000	2.24 | nda μM			
C=CC(=O)N1CCN(c2nc(=O)n(-c3ccccc3C)c3nc(-c4c(O)cccc4F)c(Cl)cc23)[C@@H](C)C1 [Example 60-15, 6-chloro-7-(2-fluoro-6-hydroxyphenyl)-1-(2-methylphenyl)-4-((2S)-2-methyl-4-(2-propenoyl)-1-piperazinyl)pyrido[2,3-d]pyrimidin-2(1H)-one]	492		≥ 10000	0.686 | nda μM			
C=CC(=O)N1CCN(c2nc(=O)n(-c3ccccc3C(C)C)c3nc(-c4cc(OC)ccc4Br)c(Cl)cc23)[C@@H](C)C1 [Example 60-26, 7-(2-bromo-5-methoxyphenyl)-6-chloro-4-((2S)-2-methyl-4-(2-propenoyl)-1-piperazinyl)-1-(2-(2-propanyl)phenyl)pyrido[2,3-d]pyrimidin-2(1H)-one]	387		≥ 10000	0.809 | nda μM			
C=CC(=O)N1CCN(c2nc(=O)n(C(C(C)C)C(C)C)c3nc(-c4ccccc4F)c(Cl)cc23)CC1 [Example 60-31, 6-chloro-1-(2,4-dimethyl-3-pentanyl)-7-(2-fluorophenyl)-4-(4-(2-propenoyl)-1-piperazinyl)pyrido[2,3-d]pyrimidin-2(1H)-one]	1000		40900	0.919 µM	710	115	86600
C=CC(=O)N1CCN(c2nc(=O)n(C(CC)CC)c3nc(-c4c(C)ccc5[nH]ncc45)c(Cl)cc23)[C@@H](C)C1 [Example 60-32, 6-chloro-7-(5-methyl-1H-indazol-4-yl)-4-((2S)-2-methyl-4-(2-propenoyl)-1-piperazinyl)-1-(3-pentanyl)pyrido[2,3-d]pyrimidin-2(1H)-one]	221		87400	0.392 µM	213	157	63900
C=CC(=O)N1CCN(c2nc(=O)n(CC(C)(C)C(F)(F)F)c3nc(-c4ccccc4F)c(Cl)cc23)[C@@H](C)C1 [Example 60-33, 6-chloro-7-(2-fluorophenyl)-4-((2S)-2-methyl-4-(2-propenoyl)-1-piperazinyl)-1-(3,3,3-trifluoro-2,2-dimethylpropyl)pyrido[2,3-d]pyrimidin-2(1H)-one]	1700		≥ 100000	1.24 µM		139	
